From patent US20210252036A1, “METHODS OF TREATING CANCER BY INHIBITING UBIQUITIN CONJUGATING ENZYME E2 K (UBE2K)” (Berg LLC, priority 2018, published 2021)
Read-outs that look alike come from different tables or passages of the source.

Columns and labels:
[1] = molecular target: T1, UBE2K (Homo sapiens, UniProt P61086); conditions: Strickson et al., 2013; cited from earlier work
T1 sequence (P61086 1-200): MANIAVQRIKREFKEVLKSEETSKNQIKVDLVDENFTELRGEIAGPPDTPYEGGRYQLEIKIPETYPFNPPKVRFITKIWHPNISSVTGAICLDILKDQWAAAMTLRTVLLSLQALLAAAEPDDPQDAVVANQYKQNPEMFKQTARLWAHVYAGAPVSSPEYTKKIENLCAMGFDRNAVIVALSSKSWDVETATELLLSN

[2] = test system: BT549 cells; test: Cell number/viability by Cell Titer Fluor after siRNA transfection; assay type: cell-based; conditions: Homo sapiens, BT-549, doxorubicin 72 h
Experimental: (§1) For initial validation studies, UBE2K was transiently knocked down using an siRNA mediated approach in Miapaca2, HepG2, SKHEP1, Hep3B, MDAMB231, SKBR3, T47D and BT549 cells. A non-targeting (NT) siRNA sequence was used as a control. Samples for confirmation of knock down at transcript and protein level were harvested 24 and 96 h post transfection, and the effect of UBE2K transient knock down was assessed on cell viability/cell number using Cell Titer Fluor at 96 h post transfection. In parallel, the effect of siRNA mediated UBE2K knock down on doxorubicin (cell death causing agent) sensitivity was assessed in the above mentioned cell lines. Cell were exposed to doxorubicin for 72 h beginning 24 h post transfection.

[3] = test system: SKHEP1 hepatocellular carcinoma cells; test: as above; assay type: cell-based; conditions: Homo sapiens, SK-HEP1, doxorubicin 72 h
Experimental: as §1

[4] = test system: T47D cells; test: as above; assay type: cell-based; conditions: Homo sapiens, doxorubicin 72 h
Experimental: as §1

SMILES	Loading of ubiquitin onto E2 conjugating enzymes such as UBE2K [1]	IC50 ([2]; BT549, UBE2K siRNA knockdown, read-out: UBE2K siRNA 95% CI IC50)	IC50 ([2]; BT549, control siRNA, read-out: Control siRNA 95% CI KSO)	IC50 ([3]; SKHEP1, UBE2K siRNA knockdown, read-out: UBE2K siRNA 95% CI IC50)	IC50 ([3]; SKHEP1, control siRNA, read-out: Control siRNA 95% CI KSO)	IC50 ([4]; UBE2K siRNA knockdown, read-out: UBE2K siRNA 95% CI IC50)	IC50 ([4]; control siRNA, read-out: Control siRNA 95% CI KSO)
Cc1ccc(S(=O)(=O)/C=C/C#N)cc1 [BAY 11-7082, (E)3-[(4-Methylphenyl)sulfonyl]-2-propenenitrile]	inhibit the loading of ubiquitin onto E2 conjugating enzymes						
COc1cccc2c1C(=O)c1c(O)c3c(c(O)c1C2=O)C[C@@](O)(C(=O)CO)C[C@@H]3O[C@H]1C[C@H](N)[C@H](O)[C@H](C)O1 [doxorubicin]		91.2 to 243 nM	165 to 381 nM	10.1 to 13.7 nM	8.58 to 11.3 nM	96.1 to 220 nM	112 to 290 nM
